Read-outs that look alike come from different tables or passages of the source.
Tests used:
[1] = tested on: TNF-alpha; experiment: Sub-lethal endotoxemia model (LPS challenge, serum TNF-alpha); format: in vivo, mouse; details: BN83250 subcutaneous, valerolactam oral gavage
Experimental: We selected the sub-lethal endotoxemia model in mouse, because this has been well characterised in our laboratory (see for example Fox et al. (2002) J. Med. Chem. 45:360-70; Fox et al. (2005) J. Med. Chem. 48:867-74). The extent of systemic inflammation in response to a single intraperitoneal injection of bacterial lipopolysaccharide (LPS) can be estimated by measuring serum TNF-alpha 2 hours post challenge.
Methods: Mice (CD1 strain; adult males; 6 per group) were treated with BSCI (in an appropriate vehicle) or with vehicle alone by an appropriate route. […] Simultaneously, one set of mice at each BSCI concentration received BIM 23627 at 4mg/animal (120mg/kg) by sub-cutaneous injection (a treatment condition known to suppress classical sstr2-mediated signalling, such as GH release, in rats; Tulipano et al. (2002) 143:1218-24). Between 30mins and 1hour after dosing (a period when a maximal plasma concentration of BSCI has been achieved), the inflammatory challenge was elicited by intraperitoneal injection of 750µg of LPS (Sigma; L4130 lot#024K4077; 900,000 EU/mg).
After a further 2 hours, the animals were sacrificed by CO2 asphyxiation, and blood was drawn by cardiac puncture. Serum was prepared by conventional methods, and the level of TNF-alpha in serum was measured using an ELISA (R&D Systems; Murine Quantikine code# MTA00) performed in accordance with the manufacturer's instructions.

[2] = tested on: THP-1 cells; experiment: MCP-1 induced THP-1 cell migration (Transwell) assay; format: cell-based, human; details: for EC50 / Emax: Homo sapiens, THP-1
Experimental: Leukocyte migration was measured using the 96-well format micro Transwell^RTM assay system from Neuroprobe (Gaithersburg, MD, USA). In principle, this assay consists of two chambers separated by a porous membrane. The chemoattractant is placed in the lower compartment and the cells are placed in the upper compartment. After incubation for a period at 37°C the cells move towards the chemoattractant, and the number of cells in the lower compartment is proportional to the chemoattractant activity (relative to a series of controls).
The method was performed essentially as previously described (Reckless & Grainger (1999) Biochem. J. 340:803-11).
First, the cell suspension to be placed in the upper compartment was prepared. The THP-1 cells were pelleted by centrifugation (770 x g; 4 mins) and washed with Geys Balanced Salt Solution with 1mg/ml BSA (GBSS + BSA). This wash was then repeated, and the cells re-pelleted before being resuspended in a small volume of GBSS + BSA for counting, for example using a standard haemocytometer.
The volume of GBSS + BSA was then adjusted depending on the number of cells present so that the cells were at final density of 4.45 x 10^6 cells per ml of GBSS + BSA. This ensured that there were 100,000 THP-1 cells in each 25µl of the solution to be placed in the upper chamber of the plate.
The suspension of THP-1 cells at 4.45 x 10^6 cells/ml was divided into three pots. To one pot the BSCI was added at an appropriate final concentration, in an appropriate vehicle (for example (S)- 3-(2',2'-dimethylpropanoylamino)-tetrahydropyridin-2-one was added at 1nM from a stock solution in GBSS). To the second pot, the BSCI was added at the same concentration as in the first pot, but additionally the sstr2 antagonist was also added (for example BIM 23454 [Tulipano et al. (2002) 143:1218-24] or BIM 23627 were added at 66nM final concentration from a stock solution in GBSS). To the third pot, GBSS + BSA plus vehicle as appropriate was added so that the volumes in three pots are equal, acting as a control.
Next, the chemoattractant solution to be placed in the lower compartment was prepared. […]. Note that, as recommended by Frow et al (Med. Res. Rev. 24:276-98) this is the concentration of MCP-1 which induces maximal migration in this system. This solution was divided into three pots, as for the cell suspension. To one pot, the BSCI was added to the same final concentration as was added to the cell suspension, in the second pot the BSCI and the sstr2 antagonist were both added at the same concentration as previously added to the cell suspension, while to the remaining pot GBSS + BSA plus vehicle as appropriate was added so that the volumes in the three pots were equal. Note that the volume of liquid that needs to be added to make the addition of the BSCI and the sstr2 antagonist compounds needs to be taken into account, when establishing the final concentration of MCP-1 in the solution for the lower compartment and the final concentration of cells in the upper compartment.
Once the chemoattractant solutions for the lower wells and cell solutions for the upper chambers were prepared, the migration chamber was assembled. 29 µl of the appropriate chemoattractant solution was placed into the lower well of the chamber. Assays were performed with at least triplicate determinations of each condition. Once all the lower chambers were filled, the porous membrane was applied to the chamber in accordance with the manufacturer's instructions. Finally, 25 µl of the appropriate cell solution was applied to each upper chamber. A plastic lid was placed over the entire apparatus to prevent evaporation.
The assembled chamber was incubated at 37 °C, 5% CO2, for 2 hours. A suspension of cells in GBSS + BSA was also incubated under identical conditions in a tube: these cells were used to construct a standard curve for determining the number of cells that migrated to the lower chamber under each condition. […]

[3] = tested on: Panc-2H4; experiment: Human Panc-2H4 insulin suppression assay; format: cell-based; details: Homo sapiens
Source text: Two different assays for "classical" sstr2 functions were adopted: (1) cultured foetal rat pituitary cells secreted growth hormone which is inhibited by sstr2 agonists in a dose-dependent fashion and (2) selected glucose-sensitive sub-clones of the human Panc-1 cell line secrete insulin which is inhibited by sstr2 agonists in a dose-dependent fashion.
Glucose-sensitive sub-clones of the human Panc-1, a cell line derived from a pleiomorphic epithelioid carcinoma of the exocrine pancreas, were obtained essentially as described by Hamil et al. (2008) Biomed. Sci. Instrum. 44:441-6. Briefly, Panc-1 cells were subcultured in 24 well plates, and the medium was supplemented with an additional 5% glucose. […] The resulting sub-lines were then tested for glucose sensitivity by preparing wells of a 96-well plate (5 x 10^4 cells per well) which were then exposed to cultured medium containing a range of glucose concentrations (low glucose DMEM, DMEM, DMEM + 1% glucose, DMEM ± 2.5% glucose and DMEM + 5% glucose). After 24hrs incubation, the conditioned medium was collected and assayed for insulin secretion by ELISA (Linco; cat# EZHI-14K) in accordance with the manufacturer's instructions. […] Further 96 well plates were prepared using Panc-2H4 (5 x 10^4 cells per well) in DMEM. After 24hrs, the medium was switched to DMEM + 5% glucose containing various test agents at various concentrations (triplicate wells per condition). After a further 24hrs, the conditioned medium was harvested and the concentration of insulin was determined by ELISA as described above.
Results were reported as the mean ± SD, expressed as the fold change from cells in the presence of vehicle only.

[4] = Table 3, read-out: Human chemokine-induced THP-1 migration assay ED50
[5] = Table 3, read-out: Human chemokine-induced THP-1 migration assay Max effect (%)
[6] = Table 3, percentage suppression compared to vehicle, read-out: Human Panc-2H4 insulin suppression assay Max effect (%)

| Structure (SMILES) | inhibition of LPS-induced TNF-alpha production (in words) [1] | "Classical" : "BSCI" potency ratio Human [2] | EC50 [2, 4] | Emax [2, 5] | EC50 ([2]; Table 5, library screening hits, read-out: Chemokine-induced THP-1 cell migration assay ("BSCI" target) ED50) | Emax ([2]; Table 5, read-out: Chemokine-induced THP-1 cell migration assay ("BSCI" target) Max Effect (%)) | EC50 ([2]; read-out: ED50 for inhibition of chemokine-induced THP-1 cell migration) | RATIO ([2]; Table 5, THP-1 migration ED50 versus insulin suppression ED50) | Emax [3, 6] | EC50 ([3]; Table 3, read-out: Human Panc-2H4 insulin suppression assay ED50) | EC50 ([3]; Table 5, library screening hits, read-out: Panc-2H4 insulin suppression assay ("classical" target) ED50) | Emax ([3]; Table 5, read-out: Panc-2H4 insulin suppression assay ("classical" target) Max Effect (%)) | potency as BSCI relative to BN83253 ([2]; Fig. 5 compared with Fig. 4) | "Classical" : "BSCI" potency ratio Human ([2]; Table 3, THP-1 migration ED50 versus Panc-2H4 insulin suppression ED50) | inhibition of MCP-1 induced cell migration (in words) ([2]; figure legends and text) |
| --- | --- | --- | --- | --- | --- | --- | --- | --- | --- | --- | --- | --- | --- | --- | --- |
| CCCCCCCCCCC(C)(C)C(=O)N[C@H]1CCCCNC1=O [BN83250, (S)-3-(2',2'-dimethyldodecanoyl)amino-caprolactam] | dramatically inhibited | <0.00009 | 0.09 nM | 100% | 0.09 nM | 100% | < 1 nM | <0.00009 | 28% | 1000 nM | 1000 nM | 28% | – | – | – |
| CC(C)(C)C(=O)N[C@H]1CCCNC1=O [Valerolactam, (S)-3-(2'2'-dimethylpropionoylamino)-tetrahydropyridin-2-one] | dramatically inhibited | – | 0.05 nM | 100% | – | – | – | – | < 10% | – | – | – | 20-50 fold | <0.00005 | inhibits MCP-1 induced cell migration in a dose-dependent manner |
